In patent publication US20240101548A1, “HYDROXAMATE COMPOUND, PREPARATION METHOD THEREFOR AND APPLICATION THEREOF” (SHENZHEN CHIPSCREEN BIOSCIENCES CO., LTD., priority 2020, published 2024):

Tests used:
[1] = system: IL-2-induced JAK1/JAK3 signal pathway; assay: IL-2-induced proliferation of KHYG-1 cells (JAK1/JAK3 signal); assay type: cell-based, human; conditions: Homo sapiens; KHYG-1 cell proliferation, IL-2 10 ng/mL, 72 hours; read-out: Inhibition activity IC50 on IL-2-induced JAK1/JAK3 signal pathway
Summary of the method: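 Controls were wells lacking both compound and cytokine (0%) and compound-free IL-2 wells (100%). C50 was calculated from inhibition rates across doses.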

[2] = system: EPO-induced JAK2 signal pathway; assay: EPO-induced proliferation of UT-7 cells (JAK2 signal); assay type: cell-based, human; conditions: Homo sapiens, UT7; UT-7 cell proliferation, EPO 10 ng/mL, 72 hours; read-out: Inhibition activity IC50 on EPO-induced JAK2 signal pathway
Summary of the method: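 […] was derived from inhibition rates across doses, scaled between wells lacking compound and cytokine (0) and EPO without compound (100), using alamarBlue fluorescence at Ex530/Em590. Compound (final 0-10000 nM) and 10 ng/mL EPO were given to UT-7 cells at 15000 per well for 72 h at 37° C.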

SMILES	IC50 [1] [µM]	IC50 [2] [µM]
CONC(=O)c1cnc(NC(=O)[C@H]2CC2(C)C)cc1Nc1ccc(C2CC2)cc1N(C)S(C)(=O)=O [Example 94, (S)-4-((4-cyclopropyl-2-(N-methylmethanesulfonamido)phenyl)amino)-6-(2,2-dimethylcyclopropyl-1-carboxamido)-N-methoxy nicotinamide]	> 10	> 10
CCONC(=O)c1cnc(Nc2cnn(C)c2)cc1Nc1ccc(C2CC2)cc1N(C)S(C)(=O)=O [Example 140, 4-((4-cyclopropyl-2-(N-methylmethanesulfonamido)phenyl)amino)-N-ethoxy-6-((1-methyl-1H-pyrazol-4-yl)amino)nicotinamide]	> 10	> 10
CONC(=O)c1cnc(NC(=O)C2CC2)cc1Nc1ccc2cnn(C)c2c1 [Example 28, 6-(cyclopropylcarboxamido)-N-methoxy-4-((1-methyl-1H-indazol-6-yl)amino)nicotinamide]	> 10	> 10
CONC(=O)c1cnc(Nc2cccc(F)n2)cc1Nc1cccc(Cl)c1N(C)S(C)(=O)=O [Example 76, 4-((3-chloro-2-(N-methylmethanesulfonamido)phenyl)amino)-6-((6-fluoropyridin-2-yl)amino)-N-methoxy nicotinamide]	> 10	> 10
CCONC(=O)c1cnc(Nc2cc(C)nc(C)c2)cc1Nc1ccc(C2CC2)cc1N(C)S(C)(=O)=O [Example 221]	> 10	> 10
CONC(=O)c1cnc(Nc2cccc(F)n2)cc1Nc1ccc(C(F)(F)F)cc1N(C)S(C)(=O)=O [Example 11, 6-((6-fluoropyridin-2-yl)amino)-N-methoxy-4-((2-(N-methylmethanesulfonamido)-4-(trifluoromethyl)phenyl)amino)nicotinamide]	> 10	> 10
CCONC(=O)c1cnc(Nc2ncc(F)cc2F)cc1Nc1cc(F)c(C(C)C)cc1N(C)S(C)(=O)=O [Example 228, 6-((3,5-difluoropyridin-2-yl)amino)-N-ethoxy-4-((5-fluoro-4-isopropyl-2-(N-methylmethanesulfonamido)phenyl)amino)nicotinamide]	> 10	> 10
CCONC(=O)c1cnc(Nc2cc(C)nc(C)n2)cc1Nc1cc(Cl)c(C2CC2)cc1N(C)S(C)(=O)=O [Example 149]	> 10	> 10
CCONC(=O)c1cnc(Nc2ncccn2)cc1Nc1cc(F)c(C2CC2)cc1N(C)S(C)(=O)=O [Example 169, 4-((4-cyclopropyl-5-fluoro-2-(N-methylmethanesulfonamido)phenyl)amino)-N-ethoxy-6-(pyrimidin-2-ylamino)nicotinamide]	> 10	> 10
CONC(=O)c1nnc(NC(=O)C2CC2)cc1Nc1cccc(-c2ccn(C)n2)c1OC [Example 53, 6-(cyclopropylcarboxamido)-N-methoxy-4-((2-methoxy-3-(1-methyl-1H-pyrazol-3-yl)phenyl)amino)pyridazine-3-carboxamide]	> 10	> 10
CONC(=O)c1cnc(Nc2ccc(F)cc2)cc1Nc1cccnc1N(C)S(C)(=O)=O [Example 17, 6-((4-fluorophenyl)amino)-N-methoxy-4-((2-(N-methylmethanesulfonamido)pyridin-3-yl)amino)nicotinamide]	> 10	> 10
CCONC(=O)c1cnc(Nc2cc(C)nc(C)n2)cc1Nc1cccc(-c2cnn(C)c2)c1OC [Example 25, 6-((2,6-dimethylpyrimidin-4-yl)amino)-N-ethoxy-4-((2-methoxy-3-(1-methyl-1H-pyrazol-4-yl)phenyl)amino)nicotinamide]	> 10	> 10
CCONC(=O)c1cnc(Nc2ccccn2)cc1Nc1cc(F)c(C2CC2)cc1N(C)S(C)(=O)=O [Example 96, 4-((4-cyclopropyl-5-fluoro-2-(N-methylmethanesulfonamido)phenyl)amino)-N-ethoxy-6-(pyridin-2-ylamino)nicotinamide]	> 10	> 10
CONC(=O)c1cnc(Nc2ccc(C(F)(F)F)cn2)cc1Nc1ccccc1N(C)S(C)(=O)=O [Example 92, N-methoxy-4-((2-(N-methylmethanesulfonamido)phenyl)amino)-6-((5-(trifluoromethyl)pyridin-2-yl)amino)nicotinamide]	> 10	> 10
CONC(=O)c1cnc(NC(=O)C2CC2)cc1Nc1ccccc1S(C)(=O)=O [Example 89]	> 10	> 10
CC(C)ONC(=O)c1cnc(Nc2cccc(F)n2)cc1Nc1ccc(C2CC2)cc1N(C)S(C)(=O)=O [Example 23, 4-((4-cyclopropyl-2-(N-methylmethanesulfonamido)phenyl)amino)-6-((6-fluoropyridin-2-yl)amino)-N-isopropoxy nicotinamide]	> 10	> 10
CCONC(=O)c1cnc(Nc2nc(C)cc(C)n2)cc1Nc1ccc(C2CC2)cc1N(C)S(C)(=O)=O [Example 123, 4-((4-cyclopropyl-2-(N-methylmethanesulfonamido)phenyl)amino)-6-((4,6-dimethylpyrimidin-2-yl)amino)-N-ethoxy nicotinamide]	> 10	> 10
CONC(=O)c1cnc(NC(=O)C2CC2)cc1Nc1cccnc1N(C)S(C)(=O)=O [Example 35, 6-(cyclopropylcarboxamido)-N-methoxy-4-((2-(N-methylmethanesulfonamido)pyridin-3-yl)amino)nicotinamide]	> 10	> 10
CONC(=O)c1cnc(Nc2cccnc2OC)cc1Nc1cccc(Cl)c1N(C)S(C)(=O)=O [Example 78, 4-((3-chloro-2-(N-methylmethanesulfonamido)phenyl)amino)-N-methoxy-6-((2-methoxypyridin-3-yl)amino)nicotinamide]	> 10	> 10
CONC(=O)c1cnc(Nc2ccc(F)cn2)cc1Nc1ccc(OC)nc1N(C)S(C)(=O)=O [Example 8, 6-((5-fluoropyridin-2-yl)amino)-N-methoxy-4-((6-methoxy-2-(N-methylmethanesulfonamido)pyridin-3-yl)amino)nicotinamide]	> 10	> 10
CCONC(=O)c1cnc(Nc2ncccn2)cc1Nc1ccc(C2CC2)cc1N(C)S(C)(=O)=O [Example 124, 4-((4-cyclopropyl-2-(N-methylmethanesulfonamido)phenyl)amino)-N-ethoxy-6-(pyrimidin-2-ylamino)nicotinamide]	> 10	> 10
CONC(=O)c1cnc(Nc2ccc(F)cc2)cc1Nc1ccc(C)nc1N(C)S(C)(=O)=O [Example 64, 6-((4-fluorophenyl)amino)-N-methoxy-4-((6-methyl-2-(N-methylmethanesulfonamido)pyridin-3-yl)amino)nicotinamide]	> 10	> 10
CCONC(=O)c1cnc(Nc2cc(C)c(F)cn2)cc1Nc1cc(F)c(C2CC2)cc1N(C)S(C)(=O)=O [Example 99, 4-((4-cyclopropyl-5-fluoro-2-(N-methylmethanesulfonamido)phenyl)amino)-N-ethoxy-6-((5-fluoro-4-methylpyridin-2-yl)amino)nicotinamide]	> 10	> 10
CONC(=O)c1cnc(Nc2cccnc2OC)cc1Nc1ccc(OC)nc1N(C)S(C)(=O)=O [Example 9, N-methoxy-4-((6-methoxy-2-(N-methylmethanesulfonamido)pyridin-3-yl)amino)-6-((2-methoxypyridin-3-yl)amino)nicotinamide]	> 10	> 10
CONC(=O)c1cnc(Nc2cccnc2OC)cc1Nc1ccccc1N(C)S(C)(=O)=O [Example 5]	> 10	> 10
CONC(=O)c1cnc(Nc2ccc(F)cn2)cc1Nc1cccc(-c2ccn(C)n2)c1OCC(F)(F)F [Example 51, 6-((5-fluoropyridin-2-yl)amino)-N-methoxy-4-((3-(1-methyl-1H-pyrazol-3-yl)-2-(2,2,2-trifluoroethoxy)phenyl)amino)nicotinamide]	> 10	> 10
CONC(=O)c1cnc(NC(=O)C2CC2)cc1Nc1cccc(Cl)c1N(C)S(C)(=O)=O [Example 75, 4-((3-chloro-2-(N-methylmethanesulfonamido)phenyl)amino)-6-(cyclopropylcarboxamido)-N-methoxy nicotinamide]	> 10	> 10
CONC(=O)c1c(Nc2ccc(C3CC3)cc2N(C)S(C)(=O)=O)cc(Nc2cccc(F)n2)nc1C [Example 67, 4-((4-cyclopropyl-2-(N-methylmethanesulfonamido)phenyl)amino)-6-((6-fluoropyridin-2-yl)amino)-N-methoxy-2-methyl nicotinamide]	> 10	> 10
CONC(=O)c1cnc(NC(=O)C2CC2)cc1Nc1cccc(-c2ccn(C)n2)c1OCC(F)(F)F [Example 50, 6-(cyclopropylcarboxamido)-N-methoxy-4-((3-(1-methyl-1H-pyrazol-3-yl)-2-(2,2,2-trifluoroethoxy)phenyl)amino)nicotinamide]	> 10	> 10
